Like-named read-outs stand apart in the source and are kept apart here.
T1: human CD58 (human, UniProt P19256 29-250)
T1 construct: whole, on cells
T1 sequence (looked up): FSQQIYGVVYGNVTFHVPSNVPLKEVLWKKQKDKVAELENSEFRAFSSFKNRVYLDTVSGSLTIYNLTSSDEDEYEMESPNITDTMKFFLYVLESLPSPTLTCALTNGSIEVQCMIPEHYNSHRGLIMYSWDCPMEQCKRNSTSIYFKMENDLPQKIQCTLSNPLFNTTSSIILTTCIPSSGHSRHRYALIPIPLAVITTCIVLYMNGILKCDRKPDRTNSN

B1: CSR CD2z (chimeric stimulatory receptor: CD2 extracellular, transmembrane and cytoplasmic domains fused to the CD3z intracellular domain) (receptor)
chain: KEITNALETWGALGQDINLDIPSFQMSDDIDDIKWEKTSDKKKIAQFRKEKETFKEKDTYKLFKNGTLKIKHLKTDDQDIYKVSIYDTKGKNVLEKIFDLKIQERVSKPKISWTCINTTLTCEVMNGTDPELNLYQDGKHLKLSQRVITHKWTTSLSAKFKCTAGNKVSKESSVEPVSCPEKGLDIYLIIGICGGGSLLMVFVALLVFYITKRKKQRSRRNDEELETRAHRVATEERGRKPHQIPASTPQNPATSQHPPPPPGHRSQAPSHRPPPPGHRVQHQPQKRPPAPSGTQVHQQKGPPLPRPRVQPKPPHGAAENSLSPSSNRVKFSRSADAPAYKQGQNQLYNELNLGRREEYDVLDKRRGRDPEMGGKPRRKNPQEGLYNELQKDKMAEAYSEIGMKGERRRGKGHDGLYQGLSTATKDTYDALHMQALPPR
notes: Expressed from mRNA on the surface of primary human T cells (degranulation assays) or K562 cells (staining); also called CSR WT CD2z; WT CD2z CSR

Key:
cells [1] = experiment: AP1903 amount needed in vitro for effective signaling of cells; type: cell-based; details: 1600 Da MW
Description: The fixed dose of AP1903 for injection used, for example, may be 0.4 mg/kg intravenously infused over 2 hours. The amount of AP1903 needed in vitro for effective signaling of cells is 10-100 nM (1600 Da MW). This equates to 16-160 μg/L or ^˜0.016-1.6 μg/kg (1.6-160 μg/kg). Doses up to 1 mg/kg were well-tolerated in the Phase I study of AP1903 described above. Therefore, 0.4 mg/kg may be a safe and effective dose of AP1903 for this Phase I study in combination with the therapeutic cells.

cells [2] = details: cited from earlier work
[3] = cited from earlier work
human CD58 = target: T1, human CD58; experiment: inferred from T-cell degranulation (CD107a) against K562/Rat2 cells overexpressing human CD58
Description: FIG. 23D is a series of flow cytometry plots showing the expression of CD48, CD58 or CD59 on K562 and Rat2 cells. To confirm possible ligands for the CSR WT CD2z molecule, a panel of known and suspected ligands including human CD48, CD58, and CD59 were tested. Degranulation of engineered T cells was evaluated against the cell lines K562 and Rat2 that were made to overexpress the target ligands and confirmed for expression by FACS staining. Red histograms are unstained cells and blue histograms are cells that were electroporated/lipofected with mRNA and then stained for expression of the respective marker by FACS.
FIG. 23E is a bar graph showing that CSR CD2z recognizes human CD58, but not CD48 or CD59. To confirm possible ligands for the CSR WT CD2z molecule, a panel of known and suspected ligands including human CD48, CD58, and CD59 were tested. Degranulation of engineered T cells was evaluated against the cell lines K562 and Rat2 that were made to overexpress the target ligands and confirmed for expression by FACS staining. Cells were electroporated/lipofected with mRNA and then stained for expression of the respective marker by FACS. […] T cell degranulation is a surrogate of T cell killing that can be measured by FACS staining for intracellular CD107a expression following coculture with target cell lines expressing target antigen. […]

| binding result (human CD58) | Molecule | amount needed for effective signaling, converted (cells [1]) [µg/L] | amount needed in vitro for effective signaling of cells (cells [2]) [nM] | plasma levels versus dose ([3]; 0.01, 0.05, 0.1, 0.5 and 1.0 mg/kg) | mean Cmax ([3]; 0.01-1.0 mg/kg dose range, IV over 2 hours) [ng/mL] | plasma level as % of maximal concentration ([3]; 0.5 hours post-dose) | plasma level as % of maximal concentration ([3]; 2 hours post-dose) [%] | plasma level as % of maximal concentration ([3]; 10 hours post-dose) [%] | well-tolerated doses ([3]; Phase I study) |
| --- | --- | --- | --- | --- | --- | --- | --- | --- | --- |
|  | CC[C@H](C(=O)N1CCCC[C@H]1C(=O)O[C@H](CCc1ccc(OC)c(OC)c1)c1cccc(OCC(=O)NCCNC(=O)COc2cccc([C@@H](CCc3ccc(OC)c(OC)c3)OC(=O)[C@@H]3CCCCN3C(=O)[C@@H](CC)c3cc(OC)c(OC)c(OC)c3)c2)c1)c1cc(OC)c(OC)c(OC)c1 (relative stereo) [AP1903, 2-Piperidinecarboxylic acid, 1-[(2S)-1-oxo-2-(3,4,5-trimethoxyphenyl)butyl]-, 1,2-ethanediylbis[imino(2-oxo-2,1-ethanediyl)oxy-3,1-phenylene[(1R)-3-(3,4-dimethoxyphenyl)propylidene]]ester, [2S-[1(R*),2R*[S*[S*[1(R*),2R*]]]]]-(9Cl)] | 16 to 160 | 10 to 100 | directly proportional to dose | 10 to 1275 | approximately 18% | ~7 | ~1 | up to 1 mg/kg |
| binds | B1 |  |  |  |  |  |  |  |  |
